In brackets after ≈: the same amount, converted by molar mass.
system: Mtb H37Rv strain; assay: Resazurin (Alamar Blue) MIC assay against replicating Mtb; format: cell-based, Mycobacterium tuberculosis; conditions: Mycobacterium tuberculosis, H37RV, in vitro cultured Mtb H37Rv; lowest concentration inhibiting ≥90% growth; initial hits, quinoxaline di-N-oxides, positive controls; read-out: Mtb MIC (H37Rv)

CCC(=O)c1c(CC)[n+]([O-])c2cc(Cl)ccc2[n+]1[O-] [SRI23] and CCC(=O)c1c(CC)[n+]([O-])c2cc(C)ccc2[n+]1[O-] [SRI32] are the same in MIC: 5 µg/mL (≈ 17.8 µM) for the first, 5 µg/mL (≈ 19.2 µM) for the second.

Going from Cc1c(C(=O)C(C)C)[n+]([O-])c2cc(Cl)ccc2[n+]1[O-] [SRI28] to Cc1c(C(=O)C(C)C)[n+]([O-])c2ccc(Cl)cc2[n+]1[O-] [SRI27], the MIC rises from 10 µg/mL (≈ 35.6 µM) to > 40 µg/mL.

First: Cc1c(C(=O)C2CC2)[n+]([O-])c2ccc(Cl)cc2[n+]1[O-] [SRI25]
Second: Cc1c(C(=O)CC(C)C)[n+]([O-])c2cc(Cl)ccc2[n+]1[O-] [SRI18]
The MIC of the first is 2-fold lower: 5 µg/mL (≈ 17.9 µM) for the first, 10 µg/mL (≈ 33.9 µM) for the second.

First: O=C(NCc1ccccn1)c1ccccc1[N+](=O)[O-] [BAS 00623753, 2-nitro-N-pyridin-2-ylmethyl-benzamide]
Second: Cc1c(C(=O)c2ccccc2)[n+]([O-])c2cc(Cl)ccc2[n+]1[O-] [SRI8]
The MIC of the first is 2-fold lower: 5 µg/mL (≈ 19.4 µM) for the first, 10 µg/mL (≈ 31.8 µM) for the second.

COc1ccc2c(c1)[n+]([O-])c(C(=O)CC(C)C)c(C)[n+]2[O-] [SRI43] and Cc1ccc2c(c1)[n+]([O-])c(C)c(C(=O)CC(C)C)[n+]2[O-] [SRI34] are the same in MIC: 20 µg/mL (≈ 68.9 µM) for the first, 20 µg/mL (≈ 72.9 µM) for the second.

First: CO[C@H]1/C=C/O[C@@]2(C)Oc3c(C)c(O)c4c(O)c(c(/C=N/N5CCN(C)CC5)c(O)c4c3C2=O)NC(=O)/C(C)=C\C=C\[C@H](C)[C@H](O)[C@@H](C)[C@@H](O)[C@@H](C)[C@H](OC(C)=O)[C@@H]1C [Rifampicin, reference compound]
Second: Cc1c(C(=O)O)[n+]([O-])c2ccccc2[n+]1[O-] [SRI53]
The MIC of the first is lower: 0.0031 to 0.012 µg/mL (≈ 0.00377 to 0.0146 µM) for the first, > 40 µg/mL for the second.

With CCCCCC(=O)c1c(C)[n+]([O-])c2cc(Cl)ccc2[n+]1[O-] [SRI20] the MIC was 5 µg/mL (≈ 16.2 µM).

same assay, conditions: Mycobacterium tuberculosis, H37RV, read-out: Mtb MIC (H37Rv), synthesized BAS 00623753 and arylamide analogs (Table 1)

With O=C(NCc1ccccn1)c1ccccc1[N+](=O)[O-] [BAS 00623753, 2-nitro-N-pyridin-2-ylmethyl-benzamide] the MIC was ≥ 50 µg/mL.

same assay, conditions: in vitro cultured Mtb H37Rv; lowest concentration inhibiting ≥90% growth; initial hits, quinoxaline di-N-oxides, positive controls

In order of rising “Mtb MIC (H37Rv)” value:
1. Cc1c(C(=O)c2ccccc2)[n+]([O-])c2cc(Cl)c(Cl)cc2[n+]1[O-] [SRI62]  2.5 µg/mL
2. C=CCCC(=O)c1c(C)[n+]([O-])c2cc(Cl)c(Cl)cc2[n+]1[O-] [SRI61]  2.5 µg/mL
3. C=CCCC(=O)c1c(C)[n+]([O-])c2cc(C)ccc2[n+]1[O-] [SRI35]  4.3 µg/mL
4. CCCCC(=O)c1c(C)[n+]([O-])c2cc(Cl)ccc2[n+]1[O-] [SRI16]  5 µg/mL
5. O=C(NCc1ccccn1)c1ccccc1[N+](=O)[O-] [BAS 00623753, 2-nitro-N-pyridin-2-ylmethyl-benzamide]  5 µg/mL
6. Cc1c(C(=O)c2ccccc2)[n+]([O-])c2ccc(Cl)cc2[n+]1[O-] [SRI7]  5 µg/mL
7. CC(=O)c1c(C)[n+]([O-])c2ccc(C)cc2[n+]1[O-] [SRI2]  5.0 µg/mL
8. Cc1c(C(=O)C2CC2)[n+]([O-])c2cc(Cl)ccc2[n+]1[O-] [SRI26]  5 µg/mL
9. Cc1c(C(=O)CC(C)C)[n+]([O-])c2ccc(Cl)cc2[n+]1[O-] [SRI19]  5 µg/mL
10. Cc1ccc2c(c1)[n+]([O-])c(C)c(C(=O)C(C)C)[n+]2[O-] [SRI38]  10 µg/mL
11. Cc1ccc2c(c1)[n+]([O-])c(C)c(C(=O)C(F)(F)F)[n+]2[O-] [SRI14]  10 µg/mL
12. CCC(=O)c1c(C)[n+]([O-])c2ccc(C)cc2[n+]1[O-] [SRI37]  10 µg/mL
13. CCC(=O)c1c(C)[n+]([O-])c2ccc(OC)cc2[n+]1[O-] [SRI46]  20 µg/mL
14. CCCCCC(=O)c1c(C)[n+]([O-])c2cc(C)ccc2[n+]1[O-] [SRI31]  20 µg/mL

With Cc1c(C(=O)O)[n+]([O-])c2ccccc2[n+]1[O-] [SRI53] the “Mtb MIC (H37Rv)” value was >40 µg/mL.

same assay, conditions: synthesized BAS 00623753 and arylamide analogs (Table 1)

In the case of Cc1ccnc(CNC(=O)c2ccccc2[N+](=O)[O-])c1 [JSF-2173], the “Mtb MIC (H37Rv)” value is reported as >50 µg/mL.
With Cc1ccc(CNC(=O)c2ccccc2[N+](=O)[O-])nc1 [JSF-2175] the “Mtb MIC (H37Rv)” value was >50 µg/mL.
O=C(NCc1ccccn1)c1ccccc1 [JSF-2133] was tested, and the “Mtb MIC (H37Rv)” value was >50 µg/mL.

Reference: paper PMC4627656, “Combining Metabolite-Based Pharmacophores with Bayesian Machine Learning Models for Mycobacterium tuberculosis Drug Discovery” (PLoS ONE, 2015)
